Test results reported in US20050101595A1, “N-containing cycloalkyl-substituted amino-thiazole derivatives and pharmaceutical compositions for inhibiting cell proliferation and methods for their use” (PFIZER INC., priority 2003, published 2005).
Structures can show the parent of a compound that is named as a salt. Where two headings read alike, the source gives them in different places. Values belong to the compound of their own block, whether it stands above or below them.

What was measured:
CDK2/Cyclin A = CDK2/Cyclin A (Homo sapiens, UniProt P24941); assay: Inhibition of CDK2/Cyclin A Retinoblastoma Kinase Activity; format: biochemical; conditions: for Ki: apparent Ki, CDK2/proteolyzed cyclin A, Rb fragment substrate, 25 μM ATP
Method in brief: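 Radiometric filter-binding readout of phosphate transfer to an Rb substrate fragment by purified CDK2/truncated cyclin A at 10 or 19 nM. Run at pH 7.4 with 25 μM ATP, 30 °C, 60–75 min, linear rates; background without enzyme subtracted, Ki from competitive-inhibition models.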

[1] = biological target: human CDK4 and genetically truncated (1-264) cyclin D3 (Homo sapiens, UniProt P11802); assay: Inhibition of CDK4/Cyclin D Retinoblastoma Kinase Activity; format: biochemical; conditions: for Ki: apparent Ki, CDK4/truncated cyclin D3, Rb fragment substrate, 25 μM ATP
Chain of human CDK4 and genetically truncated (1-264) cyclin D3 (P11802 whole entry, the tested form may be a part): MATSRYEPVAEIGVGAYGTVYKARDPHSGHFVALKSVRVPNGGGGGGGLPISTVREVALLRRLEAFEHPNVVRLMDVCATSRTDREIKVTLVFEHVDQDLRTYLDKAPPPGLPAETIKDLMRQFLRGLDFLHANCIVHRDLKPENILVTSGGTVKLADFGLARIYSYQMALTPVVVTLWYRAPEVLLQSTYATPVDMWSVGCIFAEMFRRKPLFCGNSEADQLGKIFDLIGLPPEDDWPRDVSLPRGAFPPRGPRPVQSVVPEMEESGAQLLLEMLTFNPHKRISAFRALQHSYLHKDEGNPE
Chain of human CDK4 and genetically truncated (1-264) cyclin D3 (P30281 1-264 partner): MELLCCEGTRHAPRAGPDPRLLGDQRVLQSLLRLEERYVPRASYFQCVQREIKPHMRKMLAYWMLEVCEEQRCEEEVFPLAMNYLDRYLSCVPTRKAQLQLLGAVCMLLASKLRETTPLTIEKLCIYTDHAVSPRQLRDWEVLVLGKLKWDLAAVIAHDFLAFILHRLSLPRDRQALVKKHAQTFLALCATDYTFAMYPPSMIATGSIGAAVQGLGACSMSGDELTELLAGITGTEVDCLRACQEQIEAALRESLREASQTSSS
Method in brief: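 Apparent Ki values come from competitive or competitive tight-binding inhibition fits of background-corrected 32P/33P incorporation into His-tagged Rb fragment (386-928), captured on nitrocellulose. Reaction: 5 nM insect-cell-expressed human CDK4 with cyclin D3 (1-264), 25 μM ATP, pH 7.4 HEPES, 2% DMSO, 30° C., 20 min, extended to 60 min for tight-binding inhibitors.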

HCT-116 cell line = assay: Inhibition of cell growth, tetrazolium salt (MTT) assay; format: cell-based; conditions: for IC50: Homo sapiens, HCT-116, 120 h, MTT, three to five days, read-out: HCT-116 IC50; for HCT-116 % Inhibition at 0.25 μM: 0.25 μM compound
Method in brief: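 Growth inhibition is scored relative to cells receiving only 0.5% (v/v) DMSO. Plated cells rest 4 h, then take compound for three to five days at 37° C; MTT reduction to formazan is read at 540 nm.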

[2] = 0.1 μM compound, HCT-116, Table 3
[3] = 0.1 μM compound, HCT-116, Table 4

CDK2 % Inhibition at 0.03 μM (CDK2/Cyclin A; at 0.03 μM): 32%
CDK4 % Inhibition at 0.03 μM ([1]; at 0.03 μM): 69%
SMILES: Nc1nc(NC2CCN(C(=O)c3ccc(N=Nc4ccccc4)cc3)CC2)sc1C(=O)c1c(F)cccc1F [Example R13]
HCT-116 % Inhibition at 0.1 μM (HCT-116 cell line; HCT-116 cells, at 0.1 μM): 0%
HCT-116 5 Inhibition at 0.25 μM (HCT-116 cell line; HCT-116 cells): 42

CDK2 % Inhibition at 0.03 μM (CDK2/Cyclin A; at 0.03 μM): 41%
CDK4 % Inhibition at 0.03 μM ([1]; at 0.03 μM): 66%
SMILES: COc1ccc(Oc2ccc([N+](=O)[O-])cc2C(=O)N2CCC(Nc3nc(N)c(C(=O)c4c(F)cccc4F)s3)CC2)cc1 [Example R40]
HCT-116 % Inhibition at 0.1 μM (HCT-116 cell line; HCT-116 cells, at 0.1 μM): 0%
HCT-116 5 Inhibition at 0.25 μM (HCT-116 cell line; HCT-116 cells): 43

CDK2 % Inhibition at 0.03 μM (CDK2/Cyclin A; at 0.03 μM): −3%
CDK4 % Inhibition at 0.03 μM ([1]; at 0.03 μM): 29%
SMILES: Nc1nc(NC2CCN(C(=O)c3ccc4c(c3)OCO4)CC2)sc1C(=O)c1c(F)cccc1F [Example R7]
HCT-116 % Inhibition at 0.1 μM (HCT-116 cell line; HCT-116 cells, at 0.1 μM): 7%
HCT-116 5 Inhibition at 0.25 μM (HCT-116 cell line; HCT-116 cells): 46

CDK2 % Inhibition at 0.03 μM (CDK2/Cyclin A; 0.03 μM compound, Table 4): 39%
CDK4 % Inhibition at 0.03 μM ([1]; 0.03 μM compound, Table 4): 46%
SMILES: COc1ccc(OC)c(CC(=O)N2CCC(Nc3nc(N)c(C(=O)c4c(F)cccc4F)s3)CC2)c1 [Example Q78]
HCT-116 % Inhibition at 0.1 μM (HCT-116 cell line; [3]): 0.43%
HCT-116 % Inhibition at 0.25 μM (HCT-116 cell line; HCT-116, Table 4): 37%

Second part, the compound before the results:

SMILES: CN(C)CCCc1ccc(S(=O)(=O)N2CCC(Nc3nc(N)c(C(=O)c4c(F)cccc4F)s3)CC2)cc1 (as salt: salt) [Example I10, 1-(4-Amino-2-{1-[4-(3-dimethylamino-propyl)-benzenesulfonyl]-piperidin-4-ylamino}-thiazol-5-yl)-1-(2,6-difluoro-phenyl)-methanone D-Glucuronic Acid Salt]
melting point: 117 to 120 °C

SMILES: Nc1nc(NC2CCN(S(=O)(=O)c3ccc(N4CCC[C@H](CO)C4)nc3)CC2)sc1C(=O)c1c(F)cccc1F [Example G18]
Ki (CDK2/Cyclin A): 0.39 nM
Ki [1]: 0.58 nM
IC50 (HCT-116 cell line; first HCT-116 column (c4)): 120 nM
IC50 (HCT-116 cell line; second HCT-116 column (c5)): 600 nM
melting point: > 149 °C (dec.)

SMILES: CCOC(=O)c1cccc(NC(=O)N2CCC(Nc3nc(N)c(C(=O)c4c(F)cccc4F)s3)CC2)c1 [Example O46]
CDK2 % Inhibition At 0.03 μM (CDK2/Cyclin A; 0.03 μM compound, Table 2): 29%
CDK4 % Inhibition at 0.03 μM ([1]; 0.03 μM compound, Table 2): 15%
HCT-116 % Inhibition at 0.25 μM (HCT-116 cell line; HCT-116, Table 2): 41%

SMILES: Nc1nc(NC2CCN(S(=O)(=O)c3ccc(CNC(=O)c4ccc(Cl)cc4)s3)CC2)sc1C(=O)c1c(F)cccc1F [Example P66]
CDK2 % Inhibition at 0.03 μM (CDK2/Cyclin A; 0.03 μM compound, Table 3): 55%
CDK4 % Inhibition at 0.03 μM ([1]; 0.03 μM compound, Table 3): 57%
HCT-116 % Inhibition at 0.1 μM (HCT-116 cell line; [2]): 12%
HCT-116 % Inhibition at 0.25 μM (HCT-116 cell line; HCT-116, Table 3): 34%

SMILES: Nc1nc(NC2CCN(S(=O)(=O)c3cc(OCC(F)(F)F)ccc3OCC(F)(F)F)CC2)sc1C(=O)c1c(F)cccc1F [Example P54]
CDK2 % Inhibition at 0.03 μM (CDK2/Cyclin A; 0.03 μM compound, Table 3): 17%
CDK4 % Inhibition at 0.03 μM ([1]; 0.03 μM compound, Table 3): 34%
HCT-116 % Inhibition at 0.1 μM (HCT-116 cell line; [2]): 22%
HCT-116 % Inhibition at 0.25 μM (HCT-116 cell line; HCT-116, Table 3): 23%

SMILES: Nc1nc(NC2CCN(C(=O)Oc3ccccc3)CC2)sc1C(=O)c1c(F)cccc1F [Example Q4]
CDK2 % Inhibition at 0.03 μM (CDK2/Cyclin A; 0.03 μM compound, Table 4): 59%
CDK4 % Inhibition at 0.03 μM ([1]; 0.03 μM compound, Table 4): 78%
HCT-116 % Inhibition at 0.1 μM (HCT-116 cell line; [3]): 0%
HCT-116 % Inhibition at 0.25 μM (HCT-116 cell line; HCT-116, Table 4): 41%

SMILES: Nc1nc(NC2CCN(S(=O)(=O)c3cccc4cccnc34)CC2)sc1C(=O)c1c(F)cccc1F [Example P6]
CDK2 % Inhibition at 0.03 μM (CDK2/Cyclin A; 0.03 μM compound, Table 3): −32%
CDK4 % Inhibition at 0.03 μM ([1]; 0.03 μM compound, Table 3): 18%
HCT-116 % Inhibition at 0.1 μM (HCT-116 cell line; [2]): 22%
HCT-116 % Inhibition at 0.25 μM (HCT-116 cell line; HCT-116, Table 3): 23%

SMILES: CN(C)CCN(C)c1ccc(C(=O)N2CCC(Nc3nc(N)c(C(=O)c4c(F)cccc4F)s3)CC2)cn1 [Example G32, 1-{4-Amino-2-[1-(1-{6-[(2-dimethylamino-ethyl)-methyl-amino]-pyridin-3-yl}-methanoyl)-piperidin-4-ylamino]-thiazol-5-yl}-1-(2,6-difluoro-phenyl)-methanone Trifluoroacetic Acid Salt]
Ki (CDK2/Cyclin A): 60 nM
Ki [1]: 42 nM
IC50 (HCT-116 cell line; first HCT-116 column (c4)): 4700 nM
IC50 (HCT-116 cell line; second HCT-116 column (c5)): > 5000 nM

SMILES: CC(=O)Nc1nc(C)c(S(=O)(=O)N2CCC(Nc3nc(N)c(C(=O)c4c(F)cccc4F)s3)CC2)s1 [Example P4]
CDK2 % Inhibition at 0.03 μM (CDK2/Cyclin A; 0.03 μM compound, Table 3): 15%
CDK4 % Inhibition at 0.03 μM ([1]; 0.03 μM compound, Table 3): 32%
HCT-116 % Inhibition at 0.1 μM (HCT-116 cell line; [2]): 18%
HCT-116 % Inhibition at 0.25 μM (HCT-116 cell line; HCT-116, Table 3): 24%
